Results from article PMC4410475, “Discovery and anti-cancer evaluation of two novel non-ATP-competitive FGFR1 inhibitors in non-small-cell lung cancer” (BMC Cancer, 2015).

Legend:
Assay type in all cases: biochemical
FGFR1 [1] = target: T1, FGFR1 (Homo sapiens, UniProt P11362); assay: Caliper mobility shift kinase assay with recombinant FGFR1, ATP at Km ([…])
FGFR1 [2] = target: T1, FGFR1; assay: Caliper mobility shift kinase assay with recombinant FGFR1, also at varied ATP concentrations
FGFR3 = FGFR3 (Homo sapiens, UniProt P22607); assay: cell-free kinase assay (authors' own, called previous); settings: cited from earlier work
FGFR3, sequence (P22607 23-806): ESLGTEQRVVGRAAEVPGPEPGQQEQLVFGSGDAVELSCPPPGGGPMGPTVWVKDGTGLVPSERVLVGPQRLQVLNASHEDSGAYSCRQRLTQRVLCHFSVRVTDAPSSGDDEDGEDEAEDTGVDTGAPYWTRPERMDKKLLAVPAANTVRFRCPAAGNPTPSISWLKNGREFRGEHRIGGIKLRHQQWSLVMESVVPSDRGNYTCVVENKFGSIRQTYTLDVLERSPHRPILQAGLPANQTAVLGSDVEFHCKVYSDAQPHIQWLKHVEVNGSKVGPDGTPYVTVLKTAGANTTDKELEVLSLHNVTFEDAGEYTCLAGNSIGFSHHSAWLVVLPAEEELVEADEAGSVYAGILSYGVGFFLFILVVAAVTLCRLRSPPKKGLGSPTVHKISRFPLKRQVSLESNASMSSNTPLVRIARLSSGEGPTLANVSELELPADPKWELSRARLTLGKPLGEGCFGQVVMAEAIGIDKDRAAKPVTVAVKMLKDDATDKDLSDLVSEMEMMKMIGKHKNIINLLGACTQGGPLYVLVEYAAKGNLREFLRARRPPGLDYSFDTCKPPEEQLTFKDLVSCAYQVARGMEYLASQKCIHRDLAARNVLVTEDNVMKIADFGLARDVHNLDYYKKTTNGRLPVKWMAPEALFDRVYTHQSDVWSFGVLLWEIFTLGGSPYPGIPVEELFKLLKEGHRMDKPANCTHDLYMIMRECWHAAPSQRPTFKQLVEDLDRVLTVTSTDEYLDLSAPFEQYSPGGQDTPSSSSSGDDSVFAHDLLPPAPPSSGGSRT

T1 sequence (P11362 22-822): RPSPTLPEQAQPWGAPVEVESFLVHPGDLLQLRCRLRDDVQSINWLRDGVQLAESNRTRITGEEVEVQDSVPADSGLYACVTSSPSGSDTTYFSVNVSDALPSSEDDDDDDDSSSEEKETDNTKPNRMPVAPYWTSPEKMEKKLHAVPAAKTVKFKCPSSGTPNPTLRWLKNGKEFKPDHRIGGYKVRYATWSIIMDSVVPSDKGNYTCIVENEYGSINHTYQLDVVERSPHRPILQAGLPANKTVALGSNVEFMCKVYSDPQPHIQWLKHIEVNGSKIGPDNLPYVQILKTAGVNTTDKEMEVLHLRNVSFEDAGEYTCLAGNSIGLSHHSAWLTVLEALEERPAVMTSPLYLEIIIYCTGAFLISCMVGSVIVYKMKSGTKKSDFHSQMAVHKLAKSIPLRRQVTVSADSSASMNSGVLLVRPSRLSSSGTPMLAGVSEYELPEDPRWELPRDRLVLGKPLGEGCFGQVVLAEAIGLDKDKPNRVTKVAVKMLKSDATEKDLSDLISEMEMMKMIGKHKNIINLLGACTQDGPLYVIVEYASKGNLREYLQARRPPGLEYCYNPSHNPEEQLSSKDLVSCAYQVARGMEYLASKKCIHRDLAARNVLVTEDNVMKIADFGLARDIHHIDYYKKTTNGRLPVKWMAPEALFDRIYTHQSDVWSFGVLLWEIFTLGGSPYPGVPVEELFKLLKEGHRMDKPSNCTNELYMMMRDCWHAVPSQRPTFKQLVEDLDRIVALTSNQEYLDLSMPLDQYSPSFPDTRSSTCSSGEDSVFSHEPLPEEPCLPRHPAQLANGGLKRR

| SMILES | IC50 (FGFR1 [1]) | IC50 (FGFR1 [2]) | IC50 (FGFR3) |
| --- | --- | --- | --- |
| O=C1/C(=C/c2ccc(O)c(O)c2)CSC/C1=C\c1ccc(O)c(O)c1 [Ad23, 3,5-bis(3,4-dihydroxybenzylidene)-tetrahydrothiopyran-4-one] | 0.6 µM | – | – |
| O=C1/C(=C/c2ccc(O)c(O)c2)COC/C1=C\c1ccc(O)c(O)c1 [Af23, 3,5-bis(3,4-dihydroxybenzylidene)-tetrahydropyran-4-one] | 1.4 µM | – | – |
| CC(Cc1ccc(O)c(O)c1)C(C)Cc1ccc(O)c(O)c1 (stereo not shown) [NDGA, nordihydroguaiaretic acid] | – | 24.5 µM | 72.4 µM |
